Each block holds one compound with its values, some of them ahead of it. Active and inactive are the calls of the source.
Assays:
[1] = biological target: T1, Type-1 angiotensin II receptor (Homo sapiens, UniProt P30556); assay: AT1 receptor agonists, dose response, selectivity assay for APJ receptor agonist project, cell-based, uHTS hits (AID 488865); type: functional;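 further: beta-arrestin recruitment to AT1 measured by enzyme fragment complementation luminescence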
T1 sequence (P30556 whole entry): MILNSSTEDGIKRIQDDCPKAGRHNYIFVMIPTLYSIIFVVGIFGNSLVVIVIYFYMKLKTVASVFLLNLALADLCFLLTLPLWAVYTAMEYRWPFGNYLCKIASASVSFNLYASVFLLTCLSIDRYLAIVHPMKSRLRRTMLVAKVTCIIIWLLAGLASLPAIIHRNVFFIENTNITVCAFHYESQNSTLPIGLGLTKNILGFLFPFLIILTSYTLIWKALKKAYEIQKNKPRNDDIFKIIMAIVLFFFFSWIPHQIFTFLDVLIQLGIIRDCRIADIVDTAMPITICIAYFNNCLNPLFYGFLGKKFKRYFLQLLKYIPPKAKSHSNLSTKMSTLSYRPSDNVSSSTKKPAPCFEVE

[2] = biological target: T2, Cannabinoid receptor 1 (Homo sapiens, UniProt P21554); assay: SAR analysis of antagonists of the Cannabinoid Receptor 1 using an Image-Based Assay - Set 4. [Related pubchem assays (depositor defined):AID2013, AID2026]; type: functional
[3] = biological target: T3, G-protein coupled receptor 35 (Homo sapiens, UniProt Q9HC97); assay: SAR analysis of Antagonists of the GPR35 Receptor using an Image-Based Assay - Set 6. [Related pubchem assays (depositor defined):AID2013, AID2026]; type: functional
[4] = biological target: T4, Cannabinoid receptor 2 (Homo sapiens, UniProt P34972); assay: SAR analysis of antagonists of the Cannabinoid Receptor 2 using an Image-Based Assay - Set 3. [Related pubchem assays (depositor defined):AID2013, AID2026]; type: functional
[5] = biological target: T2, Cannabinoid receptor 1; assay: SAR analysis of agonists of the Cannabinoid Receptor 1 using an Image-Based Assay - Set 4. [Related pubchem assays (depositor defined):AID2013, AID2026]; type: functional
[6] = biological target: T3, G-protein coupled receptor 35; assay: SAR analysis of Agonists of the GPR35 Receptor using an Image-Based Assay - Set 4. [Related pubchem assays (depositor defined):AID2013, AID2026]; type: functional
[7] = biological target: G-protein coupled receptor 55 (Homo sapiens, UniProt Q9Y2T6); assay: SAR Analysis of Selective Antagonists of GPR55 using an Image-Based Assay - Set 4. [Related pubchem assays (depositor defined):AID2013, AID2026]; type: functional;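 further: antagonism of response to 5 µM lysophosphatidylinositol agonist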
[8] = biological target: T4, Cannabinoid receptor 2; assay: SAR analysis of agonists of the Cannabinoid Receptor 2 using an Image-Based Assay - Set 3. [Related pubchem assays (depositor defined):AID2013, AID2026]; type: functional
[9] = inhibitors of intracellular T. cruzi replication, confirmation, NIH3T3 host cells, beta-gal luminescence (AID 2044); type: functional, cell-based;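 further: intracellular parasites grown in NIH/3T3 mouse fibroblasts as host cells; luminescent beta-galactosidase reporter signal from transgenic T. cruzi replicating inside host cells; inhibitors lower the luminescence signal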
[10] = biological target: T5, Runt-related transcription factor 1/Core-binding factor subunit beta (Homo sapiens, UniProt Q01196+Q13951); assay: inhibitors of RUNX1 Runt–CBFb-SMMHC binding, primary screen, biochemical, FRET, Cerulean-Runt, Venus-CBFb-SMMHC, uHTS (AID 1434); type: protein assay;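 further: partner is the CBFb-SMMHC leukemia fusion protein rather than wild-type CBFb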
[11] = biological target: T5, Runt-related transcription factor 1/Core-binding factor subunit beta; assay: inhibitors of RUNX1 Runt–CBFb-SMMHC binding, biochemical, TR-FRET (AID 1438); type: protein assay
[12] = cytotoxicity toward NIH3T3 fibroblasts, dose response, counter-screen, cell-based, ATP luminescence, mouse fibroblasts (AID 2010); type: functional;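 further: cells exposed to compound for about 90 hours before reading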
[13] = cells
[14] = biological target: T6, Alkaline phosphatase, tissue-nonspecific isozyme (Homo sapiens, UniProt P05186); assay: TNAP enzyme activators, dose response, selectivity assay for mouse IAP activator project, biochemical, TNAP isozyme, mouse IAP uHTS hits (AID 488880); type: functional
T6 sequence (P05186 whole entry): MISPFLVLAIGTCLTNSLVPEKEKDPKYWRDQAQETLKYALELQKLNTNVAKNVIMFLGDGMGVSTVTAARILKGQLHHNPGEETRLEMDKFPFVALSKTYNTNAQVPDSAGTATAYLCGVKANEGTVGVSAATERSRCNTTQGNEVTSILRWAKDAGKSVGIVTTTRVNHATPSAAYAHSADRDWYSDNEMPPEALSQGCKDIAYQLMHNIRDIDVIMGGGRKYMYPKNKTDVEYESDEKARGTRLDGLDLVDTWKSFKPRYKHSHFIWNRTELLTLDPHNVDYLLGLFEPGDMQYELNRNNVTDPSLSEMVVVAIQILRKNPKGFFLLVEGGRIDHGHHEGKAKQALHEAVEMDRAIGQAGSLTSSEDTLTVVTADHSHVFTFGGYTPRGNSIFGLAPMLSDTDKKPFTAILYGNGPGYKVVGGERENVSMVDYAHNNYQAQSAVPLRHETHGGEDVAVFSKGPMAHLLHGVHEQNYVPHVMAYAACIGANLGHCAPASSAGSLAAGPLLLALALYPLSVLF

[15] = biological target: Intestinal-type alkaline phosphatase (Homo sapiens, UniProt P09923); assay: activation of human intestinal alkaline phosphatase – biochemical, dose response (AID 488873); type: functional
[16] = biological target: Intestinal-type alkaline phosphatase (Mus musculus, UniProt P24822); assay: mouse intestinal alkaline phosphatase activators, dose response, biochemical, luminescence, uHTS hits (AID 488783); type: functional
[17] = biological target: Signal transducer and activator of transcription 1-alpha/beta (Homo sapiens, UniProt P42224); assay: STAT3 inhibitors, late-stage profile, late-stage follow-up, cell-based, STAT1 panel, qPCR, cytotoxicity, panel member STAT1 Inhibition (AID 2078)
[18] = biological target: Signal transducer and activator of transcription 3 (Homo sapiens, UniProt P40763); assay: STAT3 inhibitors, late-stage profile, late-stage follow-up, cell-based, STAT1 panel, qPCR, cytotoxicity, panel member STAT3 Inhibition (AID 2078)
[19] = biological target: T7, E3 ubiquitin-protein ligase XIAP (Homo sapiens, UniProt P98170); assay: XIAP antagonists, biochemical, IAP family, fluorescence polarization (AID 1018); type: functional
[20] = biological target: T7, E3 ubiquitin-protein ligase XIAP; assay: Counter Screen using XIAP-Bir3 for Chemical Antagonists of Bir1/2 domains of IAP-family anti-apoptotic proteins. [Related pubchem assays (depositor defined):AID1018, AID1449, AID1514, AID1638, AID1749, AID1750, AID488957, AID488963]
[21] = biological target: T8, Sphingosine 1-phosphate receptor 4 (Homo sapiens, UniProt O95977); assay: Fluorescence dose response cell-based high throughput screening assay for agonists of the Sphingosine 1-Phosphate Receptor 4 (S1P4). [Related pubchem assays: 1509 (Primary screen.), 1523 (Confirmation screen in triplicates.)]; type: functional
T8 sequence (O95977 whole entry): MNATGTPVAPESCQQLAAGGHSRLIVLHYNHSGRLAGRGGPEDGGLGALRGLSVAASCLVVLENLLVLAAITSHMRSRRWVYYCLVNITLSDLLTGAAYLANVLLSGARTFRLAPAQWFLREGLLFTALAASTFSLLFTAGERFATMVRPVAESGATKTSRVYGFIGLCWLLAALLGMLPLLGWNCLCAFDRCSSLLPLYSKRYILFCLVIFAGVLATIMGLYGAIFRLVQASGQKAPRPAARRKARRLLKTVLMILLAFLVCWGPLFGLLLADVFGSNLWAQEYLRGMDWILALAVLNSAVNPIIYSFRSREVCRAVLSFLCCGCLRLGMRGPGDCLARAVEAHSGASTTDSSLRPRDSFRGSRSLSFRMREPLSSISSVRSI

[22] = biological target: Sphingosine 1-phosphate receptor 1 (Homo sapiens, UniProt P21453); assay: Fluorescence-based counterscreen assay for S1P4 agonists: Cell-based dose response high throughput screening assay to identify agonists of the Sphingosine 1-Phosphate Receptor 1 (S1P1). [Related pubchem assays (depositor defined):AID1509, AID1523, AID1801, AID463107, AID463118, AID463119, AID463122, AID463123, AID463129, AID463225, AID504400, AID504460]; type: functional
[23] = biological target: Delta-type opioid receptor (Homo sapiens, UniProt P41143); assay: SAR Analysis of Agonists of the DOR Receptor using an Image-Based Assay - Set 3. [Related pubchem assays (depositor defined):AID1777, AID1786]; type: functional
[24] = biological target: Mu-type opioid receptor (Homo sapiens, UniProt P35372); assay: SAR Analysis of Agonists of the MOR Receptor using an Image-Based Assay - Set 3. [Related pubchem assays (depositor defined):AID1777, AID1785, AID1786, AID1966, AID2133, AID2136, AID2284, AID2285, AID2352]; type: functional
[25] = growth suppression of PTEN-null colon cells, dose response, cell-based, HCT116 PTEN knockout (AID 1047); type: functional;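 further: HCT116 colon tumor cells with PTEN knocked out; cells exposed to compound for 60 hours before readout; potency for loss of cell viability measured by luminescence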
[26] = biological target: SUMO-activating enzyme (Homo sapiens, UniProt Q9UBT2); assay: SUMOylation inhibitor hit validation, confirmation, SUMOylation inhibitor project, biochemical, AlphaScreen (AID 2018); type: functional
[27] = test system: INS1; assay: beta cell apoptosis inhibitors, cytokine rescue, dose response, luminescence, retest (AID 449756); type: functional, cell-based; conditions: Rattus norvegicus;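 further: cell death triggered by IL-1 beta plus TNF-alpha plus IFN-gamma mixture; protective hits raise ATP signal compared with cytokine alone wells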
[28] = growth suppression of beta-catenin-knockout colon cells, dose response, cell-based, HCT116, human colon tumor (AID 1045); type: functional;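 further: HCT116 colon tumor cells with beta catenin knocked out; cells exposed to compound for 60 hours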

T4 sequence (P34972 whole entry): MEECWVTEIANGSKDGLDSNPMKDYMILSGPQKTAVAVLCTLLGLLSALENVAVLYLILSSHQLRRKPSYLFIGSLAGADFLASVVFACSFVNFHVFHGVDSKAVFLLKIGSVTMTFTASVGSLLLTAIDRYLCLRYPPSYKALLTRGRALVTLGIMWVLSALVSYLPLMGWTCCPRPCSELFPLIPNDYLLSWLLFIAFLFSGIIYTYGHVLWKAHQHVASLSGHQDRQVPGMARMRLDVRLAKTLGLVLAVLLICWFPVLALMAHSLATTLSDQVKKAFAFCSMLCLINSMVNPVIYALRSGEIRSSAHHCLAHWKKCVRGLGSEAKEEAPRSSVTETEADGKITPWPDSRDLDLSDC
T7 sequence (P98170 whole entry): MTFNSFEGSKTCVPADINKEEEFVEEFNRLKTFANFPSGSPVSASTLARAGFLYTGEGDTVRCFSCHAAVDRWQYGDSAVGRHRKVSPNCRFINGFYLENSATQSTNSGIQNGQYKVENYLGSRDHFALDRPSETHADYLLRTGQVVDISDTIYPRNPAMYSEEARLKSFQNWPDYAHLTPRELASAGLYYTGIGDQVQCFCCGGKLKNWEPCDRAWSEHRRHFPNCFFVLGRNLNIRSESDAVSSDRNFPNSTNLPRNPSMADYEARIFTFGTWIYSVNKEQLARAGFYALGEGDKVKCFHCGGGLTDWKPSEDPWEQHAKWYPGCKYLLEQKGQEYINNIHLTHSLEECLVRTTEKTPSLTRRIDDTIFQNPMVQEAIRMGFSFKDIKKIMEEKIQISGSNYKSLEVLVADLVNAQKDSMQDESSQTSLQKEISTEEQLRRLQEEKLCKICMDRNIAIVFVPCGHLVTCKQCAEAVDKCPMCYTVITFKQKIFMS
T3 sequence (Q9HC97 whole entry): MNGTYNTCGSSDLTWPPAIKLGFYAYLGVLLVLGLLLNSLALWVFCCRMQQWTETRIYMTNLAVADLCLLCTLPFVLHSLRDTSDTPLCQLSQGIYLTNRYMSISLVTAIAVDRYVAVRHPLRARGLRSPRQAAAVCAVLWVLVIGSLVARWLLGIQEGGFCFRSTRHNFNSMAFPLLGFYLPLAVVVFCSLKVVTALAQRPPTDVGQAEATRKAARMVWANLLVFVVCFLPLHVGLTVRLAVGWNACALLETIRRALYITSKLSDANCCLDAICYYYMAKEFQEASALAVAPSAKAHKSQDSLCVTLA
T5 sequence (Q01196 whole entry, the tested form may be a part): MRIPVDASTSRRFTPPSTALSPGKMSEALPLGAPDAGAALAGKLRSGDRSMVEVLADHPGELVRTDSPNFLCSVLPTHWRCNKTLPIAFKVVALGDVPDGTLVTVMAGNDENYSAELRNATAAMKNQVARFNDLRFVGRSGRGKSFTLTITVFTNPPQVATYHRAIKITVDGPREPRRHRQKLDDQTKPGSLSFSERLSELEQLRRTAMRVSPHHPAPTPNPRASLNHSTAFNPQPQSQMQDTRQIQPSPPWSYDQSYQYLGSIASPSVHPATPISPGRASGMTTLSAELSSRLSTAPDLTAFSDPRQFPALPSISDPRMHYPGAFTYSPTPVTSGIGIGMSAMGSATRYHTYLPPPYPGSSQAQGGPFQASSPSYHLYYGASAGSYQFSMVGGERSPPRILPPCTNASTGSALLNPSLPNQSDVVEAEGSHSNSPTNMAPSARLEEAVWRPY
T5 sequence (Q13951 whole entry, the tested form may be a part): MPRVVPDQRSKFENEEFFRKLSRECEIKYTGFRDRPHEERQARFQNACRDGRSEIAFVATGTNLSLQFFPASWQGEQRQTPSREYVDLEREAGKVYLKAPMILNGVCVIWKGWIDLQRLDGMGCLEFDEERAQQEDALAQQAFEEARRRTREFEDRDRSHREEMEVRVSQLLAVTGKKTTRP
T2 sequence (P21554 whole entry): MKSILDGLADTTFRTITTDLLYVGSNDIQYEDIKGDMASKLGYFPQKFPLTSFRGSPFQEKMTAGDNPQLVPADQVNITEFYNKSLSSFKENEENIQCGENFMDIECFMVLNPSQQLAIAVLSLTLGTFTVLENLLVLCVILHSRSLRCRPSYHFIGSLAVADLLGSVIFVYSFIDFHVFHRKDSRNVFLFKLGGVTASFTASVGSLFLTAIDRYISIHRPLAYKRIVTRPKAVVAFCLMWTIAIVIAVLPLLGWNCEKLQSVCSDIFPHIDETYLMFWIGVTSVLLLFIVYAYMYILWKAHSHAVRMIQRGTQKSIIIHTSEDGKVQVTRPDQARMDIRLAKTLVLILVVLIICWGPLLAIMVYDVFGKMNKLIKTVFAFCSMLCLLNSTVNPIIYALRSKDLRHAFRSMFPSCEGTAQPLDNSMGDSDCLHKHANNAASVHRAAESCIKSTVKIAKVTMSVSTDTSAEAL
Chain of Sphingosine 1-phosphate receptor 1 (P21453 whole entry): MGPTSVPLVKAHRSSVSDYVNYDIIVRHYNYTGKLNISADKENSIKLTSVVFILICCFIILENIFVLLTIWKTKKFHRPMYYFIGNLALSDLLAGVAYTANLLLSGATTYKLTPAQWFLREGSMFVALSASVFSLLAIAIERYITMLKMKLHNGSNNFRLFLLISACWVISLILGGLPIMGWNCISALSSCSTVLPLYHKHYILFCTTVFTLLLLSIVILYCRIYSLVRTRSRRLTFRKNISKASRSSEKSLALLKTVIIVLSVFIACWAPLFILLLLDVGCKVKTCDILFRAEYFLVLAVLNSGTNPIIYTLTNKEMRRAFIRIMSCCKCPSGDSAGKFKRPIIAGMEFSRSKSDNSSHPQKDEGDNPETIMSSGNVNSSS
Chain of Mu-type opioid receptor (P35372 whole entry): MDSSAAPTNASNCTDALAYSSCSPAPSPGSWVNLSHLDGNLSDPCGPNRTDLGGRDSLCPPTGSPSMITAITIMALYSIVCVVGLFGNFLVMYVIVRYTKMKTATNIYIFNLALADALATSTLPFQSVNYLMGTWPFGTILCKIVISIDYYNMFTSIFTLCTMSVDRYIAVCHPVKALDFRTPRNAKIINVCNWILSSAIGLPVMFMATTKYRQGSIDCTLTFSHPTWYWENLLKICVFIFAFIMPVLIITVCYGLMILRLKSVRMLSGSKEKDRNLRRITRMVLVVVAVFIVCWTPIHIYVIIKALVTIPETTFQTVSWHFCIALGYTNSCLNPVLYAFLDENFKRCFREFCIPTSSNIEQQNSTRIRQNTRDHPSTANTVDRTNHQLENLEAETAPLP
Chain of Intestinal-type alkaline phosphatase (Homo sapiens, UniProt P09923) (P09923 whole entry): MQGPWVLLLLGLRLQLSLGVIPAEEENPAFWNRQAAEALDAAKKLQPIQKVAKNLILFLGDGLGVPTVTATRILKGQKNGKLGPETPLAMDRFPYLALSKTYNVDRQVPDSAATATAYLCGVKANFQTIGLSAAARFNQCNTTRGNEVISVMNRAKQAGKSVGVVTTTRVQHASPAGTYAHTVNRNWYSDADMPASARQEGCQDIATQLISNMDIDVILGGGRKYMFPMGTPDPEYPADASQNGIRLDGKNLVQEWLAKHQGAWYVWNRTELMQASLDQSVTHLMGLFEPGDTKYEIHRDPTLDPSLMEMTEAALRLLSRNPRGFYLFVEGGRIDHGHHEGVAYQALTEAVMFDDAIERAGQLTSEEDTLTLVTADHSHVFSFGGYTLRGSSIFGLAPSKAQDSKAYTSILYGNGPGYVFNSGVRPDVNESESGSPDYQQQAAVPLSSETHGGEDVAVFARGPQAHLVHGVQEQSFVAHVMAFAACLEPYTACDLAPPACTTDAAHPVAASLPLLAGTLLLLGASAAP
Chain of Signal transducer and activator of transcription 3 (P40763 whole entry): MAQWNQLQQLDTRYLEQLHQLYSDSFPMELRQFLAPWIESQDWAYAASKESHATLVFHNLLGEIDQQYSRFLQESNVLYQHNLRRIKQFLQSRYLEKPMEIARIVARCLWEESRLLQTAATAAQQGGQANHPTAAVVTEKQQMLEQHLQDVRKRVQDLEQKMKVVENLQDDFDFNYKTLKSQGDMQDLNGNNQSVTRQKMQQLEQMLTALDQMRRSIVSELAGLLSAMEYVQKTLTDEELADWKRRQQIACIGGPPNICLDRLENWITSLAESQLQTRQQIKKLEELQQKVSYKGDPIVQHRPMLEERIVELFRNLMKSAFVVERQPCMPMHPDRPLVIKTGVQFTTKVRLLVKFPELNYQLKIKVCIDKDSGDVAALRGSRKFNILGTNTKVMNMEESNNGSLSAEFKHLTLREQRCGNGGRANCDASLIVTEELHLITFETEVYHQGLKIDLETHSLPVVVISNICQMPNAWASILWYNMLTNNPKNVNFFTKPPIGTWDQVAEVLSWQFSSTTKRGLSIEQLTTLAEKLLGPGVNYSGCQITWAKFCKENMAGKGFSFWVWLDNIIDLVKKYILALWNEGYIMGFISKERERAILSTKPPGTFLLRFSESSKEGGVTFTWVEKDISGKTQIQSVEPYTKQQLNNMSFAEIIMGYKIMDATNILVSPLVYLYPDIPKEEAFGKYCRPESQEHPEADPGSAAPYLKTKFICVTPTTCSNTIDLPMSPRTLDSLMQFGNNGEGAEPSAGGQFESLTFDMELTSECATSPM
Chain of Intestinal-type alkaline phosphatase (Mus musculus, UniProt P24822) (P24822 whole entry): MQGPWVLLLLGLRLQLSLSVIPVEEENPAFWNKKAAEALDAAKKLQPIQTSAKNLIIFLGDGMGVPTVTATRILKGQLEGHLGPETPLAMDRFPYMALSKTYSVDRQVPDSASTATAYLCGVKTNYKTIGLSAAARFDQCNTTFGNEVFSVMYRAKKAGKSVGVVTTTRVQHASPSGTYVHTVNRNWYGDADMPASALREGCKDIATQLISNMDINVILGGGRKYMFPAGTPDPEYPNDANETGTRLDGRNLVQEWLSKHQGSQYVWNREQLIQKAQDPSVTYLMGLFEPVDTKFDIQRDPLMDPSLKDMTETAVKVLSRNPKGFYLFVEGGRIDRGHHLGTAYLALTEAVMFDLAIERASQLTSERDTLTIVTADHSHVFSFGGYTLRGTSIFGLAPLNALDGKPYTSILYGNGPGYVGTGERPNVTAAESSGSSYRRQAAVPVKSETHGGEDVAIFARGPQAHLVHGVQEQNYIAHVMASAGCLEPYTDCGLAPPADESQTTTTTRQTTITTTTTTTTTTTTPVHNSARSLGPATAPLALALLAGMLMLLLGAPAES

EC50 [1]: > 100 µM (inactive)
SMILES: O=c1oc2cc(OCc3ccc([N+](=O)[O-])cc3)ccc2c2c1CCCC2

IC50 [2]: > 32 µM (inactive)
IC50 [3]: > 32 µM (inactive)
IC50 [4]: > 32 µM (inactive)
EC50 [5]: > 32 µM (inactive)
EC50 [6]: > 32 µM (inactive)
IC50 [7]: 5.85 µM (active)
EC50 [8]: 7.94 µM (active)
SMILES: N=c1c(C(=O)NCc2cccnc2)cc2c(=O)n3ccccc3nc2n1C1CCCC1

SMILES: CCN1CCS/C1=C\C=C\C1=[N+](CC)CCS1
EC50 [9]: < 0.1 µM (active)
IC50 [10]: 1.35 µM (active)
IC50 [11]: > 100 µM (inactive)
EC50 [12]: > 60 µM (not active)
EC50 [13]: 0.028 µM (active)

EC50 [14]: 28.1 µM (active)
EC50 [15]: 20.4 µM (active)
EC50 [16]: 14.9 µM (active)
SMILES: Cc1ccc(NC(=O)CCNS(=O)(=O)c2ccc3nc(O)oc3c2)c(Cl)c1

SMILES: NNC(=O)c1cc2c(N3CCC(Cc4ccccc4)CC3)ncnc2s1
IC50 [17]: > 55.7 µM (inactive)
IC50 [18]: 13.7 µM (inactive)

IC50 [19]: > 100 µM (not active)
IC50 [20]: > 100 µM (inactive)
SMILES: COc1ccc(-c2nc(Cn3c(SCc4ccccc4F)nc4ccncc43)c(C)o2)cc1

SMILES: CC(=O)C1=C(C)NC(SCC(=O)c2ccc(Cl)cc2Cl)=C(C#N)C1c1ccco1 (stereo not given)
EC50 [9]: 0.437 µM (active)
EC50 [21]: > 49.8 µM (not active)
EC50 [22]: > 49.8 µM (inactive)
EC50 [12]: 15.7 µM (active)

EC50 [23]: > 64 µM (inactive)
EC50 [24]: > 32 µM (inactive)
SMILES: Cc1cc(C)c(CSc2nnc(-c3ccccn3)n2Cc2ccco2)c(C)c1

SMILES: CCCCCCCC(=O)Nc1ccc(C(=O)N/N=C/c2cccc([N+](=O)[O-])c2)cc1
EC50 [25]: 3.02 µM (active)
IC50 [26]: 34.7 µM (active)
AC50 [27]: 4.85 µM (active)
EC50 [28]: 2.55 µM (active)

Source: ChEMBL document CHEMBL1201862, “PubChem BioAssay data set” (2004)
